Experimental data as given in PubChem BioAssay AID1963960 (Molecular Pharmacology Branch, DTP, NCI, 2024).

Tested on: MDA-MB-468 spheroids with HUVEC/MSC, viability
Test: Anticancer human tumor MDA-MB-468 cell line growth inhibition [PI3K];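 also: spheroids exposed to agents for seven days before readout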;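 as to viability, T/C: 100% = DMSO vehicle control viability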
Details: for viability, T/C: stronger effect = lower value; active = viability on the fitted dose curve at most 10% of control; inactive = the rest
How it was run: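 Spheroid viability read-out. Co-cultures contained the tumor line plus HUVEC and human MSCs. Each agent was paired with a PI3K inhibitor (inavolisib, alpelisib, duvelisib, copanlisib) across half-log dilutions starting at clinical Cmax, or at 10 microM when Cmax was unknown.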

[1] = curve of first compound, second compound 0.0316 µM
[2] = curve of first compound, second compound 0.1 µM
[3] = curve of first compound, second compound 0.316 µM
[4] = curve of first compound, second compound 1 µM
[5] = second compound 0.0316 µM, first compound 0.0316 µM
[6] = second compound 0.0316 µM, first compound 0.1 µM
[7] = second compound 0.1 µM, first compound 0.0316 µM
[8] = second compound 0.1 µM, first compound 0.1 µM
[9] = second compound 0.316 µM, first compound 0.0316 µM
[10] = second compound 0.316 µM, first compound 0.1 µM
[11] = second compound 1 µM, first compound 0.0316 µM
[12] = second compound 1 µM, first compound 0.1 µM
[13] = curve of first compound, second compound 3.16 µM
[14] = curve of first compound, second compound 10 µM
[15] = second compound 0.0316 µM, first compound 0.316 µM
[16] = second compound 0.0316 µM, first compound 1 µM
[17] = second compound 0.0316 µM, first compound 3.16 µM
[18] = second compound 0.0316 µM, first compound 10 µM
[19] = second compound 0.1 µM, first compound 0.316 µM
[20] = second compound 0.1 µM, first compound 1 µM
[21] = second compound 0.1 µM, first compound 3.16 µM
[22] = second compound 0.1 µM, first compound 10 µM
[23] = second compound 0.316 µM, first compound 0.316 µM
[24] = second compound 0.316 µM, first compound 1 µM
[25] = second compound 0.316 µM, first compound 3.16 µM
[26] = second compound 0.316 µM, first compound 10 µM
[27] = second compound 1 µM, first compound 0.316 µM
[28] = second compound 1 µM, first compound 1 µM
[29] = second compound 1 µM, first compound 3.16 µM
[30] = second compound 1 µM, first compound 10 µM
[31] = second compound 3.16 µM, first compound 0.0316 µM
[32] = second compound 3.16 µM, first compound 0.1 µM
[33] = second compound 3.16 µM, first compound 0.316 µM
[34] = second compound 3.16 µM, first compound 1 µM
[35] = second compound 3.16 µM, first compound 3.16 µM
[36] = second compound 3.16 µM, first compound 10 µM
[37] = second compound 10 µM, first compound 0.0316 µM
[38] = second compound 10 µM, first compound 0.1 µM
[39] = second compound 10 µM, first compound 0.316 µM
[40] = second compound 10 µM, first compound 1 µM
[41] = second compound 10 µM, first compound 3.16 µM
[42] = second compound 10 µM, first compound 10 µM

Cn1cnc2c(F)c(Nc3ccc(Br)cc3Cl)c(C(=O)NOCCO)cc21
> 3 µM: IC50 (curve of compound)
inactive: viability, T/C (compound 0.00949 µM) 82.8% [middle of 4 runs] | viability, T/C (compound 0.03 µM) 83.3% [middle of 4 runs] | viability, T/C (compound 0.0949 µM) 86.8% [middle of 4 runs] | viability, T/C (compound 0.3 µM) 87.3% [middle of 4 runs] | viability, T/C (compound 0.949 µM) 88.8% [middle of 4 runs] | viability, T/C (compound 3 µM) 64.7% [middle of 4 runs]

Cn1ncnc1[C@H]1c2n[nH]c(=O)c3cc(F)cc(c23)N[C@@H]1c1ccc(F)cc1 + CC(Nc1ccc2c(c1)OCCn1cc(N3C(=O)OCC3C(F)F)nc1-2)C(N)=O
inactive: viability, T/C (second compound 0.00316 µM, first compound 0.000316 µM) 93.1% | viability, T/C (second compound 0.00316 µM, first compound 0.001 µM) 87.6% | viability, T/C (second compound 0.00316 µM, first compound 0.00316 µM) 87.3% | viability, T/C (second compound 0.00316 µM, first compound 0.01 µM) 96.8% | viability, T/C (second compound 0.00316 µM, first compound 0.0316 µM) 72.2% | viability, T/C (second compound 0.00316 µM, first compound 0.1 µM) 55.4% | viability, T/C (second compound 0.01 µM, first compound 0.000316 µM) 90% | viability, T/C (second compound 0.01 µM, first compound 0.001 µM) 99.3% | viability, T/C (second compound 0.01 µM, first compound 0.00316 µM) 81% | viability, T/C (second compound 0.01 µM, first compound 0.01 µM) 85.6% | viability, T/C (second compound 0.01 µM, first compound 0.0316 µM) 76.3% | viability, T/C (second compound 0.01 µM, first compound 0.1 µM) 56.5% | viability, T/C (second compound 0.0316 µM, first compound 0.000316 µM) 107% | viability, T/C (second compound 0.0316 µM, first compound 0.001 µM) 88.9% | viability, T/C (second compound 0.0316 µM, first compound 0.00316 µM) 83% | viability, T/C (second compound 0.0316 µM, first compound 0.01 µM) 83.5% | viability, T/C [5] 74.5% | viability, T/C [6] 47.3% | viability, T/C (second compound 0.1 µM, first compound 0.000316 µM) 99.5% | viability, T/C (second compound 0.1 µM, first compound 0.001 µM) 77.4% | viability, T/C (second compound 0.1 µM, first compound 0.00316 µM) 72.4% | viability, T/C (second compound 0.1 µM, first compound 0.01 µM) 80.2% | viability, T/C [7] 75.6% | viability, T/C [8] 45.5% | viability, T/C (second compound 0.316 µM, first compound 0.000316 µM) 93.4% | viability, T/C (second compound 0.316 µM, first compound 0.001 µM) 73.6% | viability, T/C (second compound 0.316 µM, first compound 0.00316 µM) 73.9% | viability, T/C (second compound 0.316 µM, first compound 0.01 µM) 67.5% | viability, T/C [9] 52.4% | viability, T/C [10] 40.6% | viability, T/C (second compound 1 µM, first compound 0.000316 µM) 73.7% | viability, T/C (second compound 1 µM, first compound 0.001 µM) 73.4% | viability, T/C (second compound 1 µM, first compound 0.00316 µM) 68.7% | viability, T/C (second compound 1 µM, first compound 0.01 µM) 67% | viability, T/C [11] 56% | viability, T/C [12] 41.3%
0.0424 µM: IC50 [3]
> 0.1 µM: IC50 (curve of first compound, second compound 0.00316 µM) | IC50 (curve of first compound, second compound 0.01 µM) | IC50 [1]
0.0516 µM: IC50 [4]
0.0862 µM: IC50 [2]

Cn1nccc1Nc1nccc(-c2ccn(C(CO)c3ccc(Cl)c(F)c3)c(=O)c2)n1 (stereo not given) + CC(Nc1ncnc2nc[nH]c12)c1cc2cccc(Cl)c2c(=O)n1-c1ccccc1
< 0.0316 µM: IC50 [14]
> 10 µM: IC50 [1] | IC50 [2] | IC50 [3] | IC50 [4] | IC50 [13]
inactive: viability, T/C [5] 74.2% | viability, T/C [6] 84.5% | viability, T/C [15] 79.5% | viability, T/C [16] 79.6% | viability, T/C [17] 79.4% | viability, T/C [18] 78.3% | viability, T/C [7] 80.1% | viability, T/C [8] 86.1% | viability, T/C [19] 77.8% | viability, T/C [20] 96.7% | viability, T/C [21] 83.8% | viability, T/C [22] 73.5% | viability, T/C [9] 73.1% | viability, T/C [10] 69.3% | viability, T/C [23] 68.4% | viability, T/C [24] 73% | viability, T/C [25] 78.5% | viability, T/C [26] 78.9% | viability, T/C [11] 65.7% | viability, T/C [12] 59.8% | viability, T/C [27] 62% | viability, T/C [28] 71.8% | viability, T/C [29] 73.4% | viability, T/C [30] 72% | viability, T/C [31] 56.6% | viability, T/C [32] 55.1% | viability, T/C [33] 49% | viability, T/C [34] 63.2% | viability, T/C [35] 54.5% | viability, T/C [36] 48.8% | viability, T/C [37] 33.8% | viability, T/C [38] 34.8% | viability, T/C [39] 31.1% | viability, T/C [40] 32.2% | viability, T/C [41] 39.2% | viability, T/C [42] 27.6%

C=CC(=O)N1CCN(c2nc(=O)n(-c3c(C)ccnc3C(C)C)c3nc(-c4c(O)cccc4F)c(F)cc23)C(C)C1 (stereo not given) + CC(Nc1ncnc2nc[nH]c12)c1cc2cccc(Cl)c2c(=O)n1-c1ccccc1
inactive: viability, T/C [5] 88.1% | viability, T/C [6] 93% | viability, T/C [15] 99.4% | viability, T/C [16] 99.3% | viability, T/C [17] 86.1% | viability, T/C [18] 74.2% | viability, T/C [7] 89.3% | viability, T/C [8] 79.8% | viability, T/C [19] 83.7% | viability, T/C [20] 94.2% | viability, T/C [21] 91.1% | viability, T/C [22] 73.7% | viability, T/C [9] 70.4% | viability, T/C [10] 74.4% | viability, T/C [23] 84.3% | viability, T/C [24] 94.7% | viability, T/C [25] 76.9% | viability, T/C [26] 61.4% | viability, T/C [11] 70.6% | viability, T/C [12] 61.4% | viability, T/C [27] 82.2% | viability, T/C [28] 84.6% | viability, T/C [29] 84.4% | viability, T/C [30] 60.6% | viability, T/C [31] 54.5% | viability, T/C [32] 57.1% | viability, T/C [33] 61.4% | viability, T/C [34] 68.5% | viability, T/C [35] 70.6% | viability, T/C [36] 51% | viability, T/C [37] 41% | viability, T/C [38] 46.7% | viability, T/C [39] 47.1% | viability, T/C [40] 51.1% | viability, T/C [41] 50.1% | viability, T/C [42] 37.4%
< 0.0316 µM: IC50 [14]
> 10 µM: IC50 [1] | IC50 [2] | IC50 [3] | IC50 [4] | IC50 [13]

CC(Cn1ccc(-c2ccc(C#N)c(Cl)c2)n1)NC(=O)c1cc(C(C)O)[nH]n1 (stereo not given) + CC(Nc1ncnc2nc[nH]c12)c1cc2cccc(Cl)c2c(=O)n1-c1ccccc1
inactive: viability, T/C [5] 82% | viability, T/C [6] 92.4% | viability, T/C [15] 90.2% | viability, T/C [16] 90.3% | viability, T/C [17] 88.8% | viability, T/C [18] 79.1% | viability, T/C [7] 86.8% | viability, T/C [8] 80.7% | viability, T/C [19] 76.5% | viability, T/C [20] 88.4% | viability, T/C [21] 89% | viability, T/C [22] 71.7% | viability, T/C [9] 85.7% | viability, T/C [10] 93.6% | viability, T/C [23] 72.7% | viability, T/C [24] 76.1% | viability, T/C [25] 70.7% | viability, T/C [26] 66.3% | viability, T/C [11] 55.9% | viability, T/C [12] 69.1% | viability, T/C [27] 60.2% | viability, T/C [28] 73.9% | viability, T/C [29] 66.6% | viability, T/C [30] 57.6% | viability, T/C [31] 60.6% | viability, T/C [32] 58.8% | viability, T/C [33] 60.8% | viability, T/C [34] 52.4% | viability, T/C [35] 56.5% | viability, T/C [36] 47.1% | viability, T/C [37] 45.8% | viability, T/C [38] 40.5% | viability, T/C [39] 40.7% | viability, T/C [40] 43.1% | viability, T/C [41] 44.5% | viability, T/C [42] 38.6%
> 10 µM: IC50 [1] | IC50 [2] | IC50 [3] | IC50 [4] | IC50 [13]
< 0.0316 µM: IC50 [14]
